Experimental data from ChEMBL document CHEMBL3885861, “Open TG-GATES”.

Species: Rattus norvegicus
Assay: Open TG-GATES - Regimen: Daily Repeat
Type: toxicity, organism-based, Sprague-Dawley
Set-up: regimen Daily Repeat, gender Male, age 6 weeks
Conditions: in vivo, po, route gavage; for APTT / Bas / Eos / Fbg / Hb / Ht / Lym / MCH / MCHC / MCV / Mono / Neu / PT / Plat / RBC / Ret / WBC: tissue Blood; for KIDNEY_L / KIDNEY_R / KIDNEY_TOTAL: tissue Kidney; for LIVER: tissue Liver; for A/G / ALP / ALT / AST / BUN / CRE / Ca / Cl / DBIL / GLC / IP / K / LDH / Na / PL / RALB / TBIL / TC / TG / TP / gamma-GTP: tissue Plasma
[1] = 0 mg/kg, 72 h, dose level Control, time 3 day
[2] = 0 mg/kg, […], dose level Control, time 7 day
[3] = 0 mg/kg, […], dose level Control, time 14 day
[4] = 0 mg/kg, […], dose level Control, time 28 day
[5] = 100 mg/kg, 72 h, dose level Low, time 3 day
[6] = 100 mg/kg, […], dose level Low, time 7 day
[7] = 100 mg/kg, […], dose level Low, time 14 day
[8] = 100 mg/kg, […], dose level Low, time 28 day

## COC1=CC(=O)C[C@@H](C)[C@]12Oc1c(Cl)c(OC)cc(OC)c1C2=O [GRISEOFULVIN]
[1]
  TERMINAL_BW: 226.2 g
  APTT: 20.3 s
  Bas: 0%
  Eos: 1%
  Fbg: 209.6 mg/dL
  Hb: 12.8 g/dL
  Ht: 38%
  Lym: 81.8%
  MCH: 21.4 pg
  MCHC: 33.6%
  MCV: 63.5 fL
  Mono: 2.4%
  Neu: 15%
  PT: 13.1 s
  Plat: 133.8 x10_4/uL
  RBC: 598.2 x10_4/ul
  Ret: 6.7%
  WBC: 92 x10_2/uL
  KIDNEY_L: 0.9 g
  KIDNEY_R: 0.9 g
  KIDNEY_TOTAL: 1.9 g
  LIVER: 10.4 g
  A/G: 1.6
  ALP: 917.8 IU/L
  ALT: 35 IU/L
  AST: 66.2 IU/L
  BUN: 14.6 mg/dL
  CRE: 0.4 mg/dL
  Ca: 10.6 mg/dL
  Cl: 104.4 meq/L
  DBIL: 0.1 mg/dL
  GLC: 210.8 mg/dL
  IP: 7.7 mg/dL
  K: 4 meq/L
  LDH: 154 IU/L
  Na: 141 meq/L
  PL: 130.6 mg/dL
  RALB: 3.3 g/dL
  TBIL: 0.2 mg/dL
  TC: 69 mg/dL
  TG: 79 mg/dL
  TP: 5.3 g/dL
  gamma-GTP: 1.2 IU/L
[2]
  TERMINAL_BW: 261.4 g
  APTT: 18.8 s
  Bas: 0%
  Eos: 0.8%
  Fbg: 236 mg/dL
  Hb: 14.1 g/dL
  Ht: 42%
  Lym: 78%
  MCH: 21.7 pg
  MCHC: 33.6%
  MCV: 64.8 fL
  Mono: 3%
  Neu: 17.4%
  PT: 12.3 s
  Plat: 122.6 x10_4/uL
  RBC: 647.4 x10_4/ul
  Ret: 5.2%
  WBC: 117.8 x10_2/uL
  KIDNEY_L: 1.1 g
  KIDNEY_R: 1.2 g
  KIDNEY_TOTAL: 2.3 g
  LIVER: 12.6 g
  A/G: 1.6
  ALP: 944.2 IU/L
  ALT: 41.2 IU/L
  AST: 81 IU/L
  BUN: 14.6 mg/dL
  CRE: 0.4 mg/dL
  Ca: 10.8 mg/dL
  Cl: 103.4 meq/L
  DBIL: 0.1 mg/dL
  GLC: 206.8 mg/dL
  IP: 7.4 mg/dL
  K: 3.9 meq/L
  LDH: 155.4 IU/L
  Na: 142.2 meq/L
  PL: 146.6 mg/dL
  RALB: 3.5 g/dL
  TBIL: 0.2 mg/dL
  TC: 75.8 mg/dL
  TG: 112.2 mg/dL
  TP: 5.8 g/dL
  gamma-GTP: 1.2 IU/L
[3]
  TERMINAL_BW: 310.7 g
  APTT: 19.7 s
  Bas: 0%
  Eos: 1%
  Fbg: 226.2 mg/dL
  Hb: 14.1 g/dL
  Ht: 42.2%
  Lym: 81.2%
  MCH: 20.8 pg
  MCHC: 33.4%
  MCV: 62.2 fL
  Mono: 3%
  Neu: 14.4%
  PT: 12.4 s
  Plat: 117 x10_4/uL
  RBC: 678.6 x10_4/ul
  Ret: 3%
  WBC: 116.8 x10_2/uL
  KIDNEY_L: 1.2 g
  KIDNEY_R: 1.2 g
  KIDNEY_TOTAL: 2.4 g
  LIVER: 13.6 g
  A/G: 1.5
  ALP: 820.2 IU/L
  ALT: 32.8 IU/L
  AST: 55.8 IU/L
  BUN: 15 mg/dL
  CRE: 0.5 mg/dL
  Ca: 10.6 mg/dL
  Cl: 102.4 meq/L
  DBIL: 0.1 mg/dL
  GLC: 236 mg/dL
  IP: 7.3 mg/dL
  K: 4.2 meq/L
  LDH: 130.6 IU/L
  Na: 139.8 meq/L
  PL: 145.8 mg/dL
  RALB: 3.5 g/dL
  TBIL: 0.2 mg/dL
  TC: 73.6 mg/dL
  TG: 107.2 mg/dL
  TP: 5.8 g/dL
  gamma-GTP: 0.8 IU/L
[4]
  TERMINAL_BW: 391 g
  APTT: 20.6 s
  Bas: 0%
  Eos: 0.8%
  Fbg: 220 mg/dL
  Hb: 15.2 g/dL
  Ht: 44.8%
  Lym: 82.4%
  MCH: 19.7 pg
  MCHC: 34%
  MCV: 58 fL
  Mono: 2%
  Neu: 14%
  PT: 12.3 s
  Plat: 115.6 x10_4/uL
  RBC: 774.2 x10_4/ul
  Ret: 2.7%
  WBC: 130.8 x10_2/uL
  KIDNEY_L: 1.4 g
  KIDNEY_R: 1.4 g
  KIDNEY_TOTAL: 2.8 g
  LIVER: 16.1 g
  A/G: 1.5
  ALP: 889.4 IU/L
  ALT: 36.4 IU/L
  AST: 56.8 IU/L
  BUN: 15.2 mg/dL
  CRE: 0.5 mg/dL
  Ca: 10.5 mg/dL
  Cl: 102.8 meq/L
  DBIL: 0.078 mg/dL
  GLC: 240.2 mg/dL
  IP: 7.2 mg/dL
  K: 3.6 meq/L
  LDH: 155.8 IU/L
  Na: 141.2 meq/L
  PL: 132.8 mg/dL
  RALB: 3.5 g/dL
  TBIL: 0.2 mg/dL
  TC: 72.6 mg/dL
  TG: 65.4 mg/dL
  TP: 6 g/dL
  gamma-GTP: 1.2 IU/L
[5]
  TERMINAL_BW: 226.6 g
  APTT: 19.6 s
  Bas: 0%
  Eos: 1%
  Fbg: 220 mg/dL
  Hb: 13.2 g/dL
  Ht: 39.1%
  Lym: 79.6%
  MCH: 22.1 pg
  MCHC: 33.8%
  MCV: 65.4 fL
  Mono: 2.4%
  Neu: 16.4%
  PT: 12.6 s
  Plat: 116.4 x10_4/uL
  RBC: 599.4 x10_4/ul
  Ret: 7.5%
  WBC: 97.1 x10_2/uL
  KIDNEY_L: 1 g
  KIDNEY_R: 1 g
  KIDNEY_TOTAL: 2 g
  LIVER: 11.2 g
  A/G: 1.6
  ALP: 947.8 IU/L
  ALT: 35.8 IU/L
  AST: 63 IU/L
  BUN: 14.6 mg/dL
  CRE: 0.4 mg/dL
  Ca: 10.8 mg/dL
  Cl: 103.8 meq/L
  DBIL: 0.086 mg/dL
  GLC: 213.6 mg/dL
  IP: 7.9 mg/dL
  K: 3.9 meq/L
  LDH: 158.2 IU/L
  Na: 140.8 meq/L
  PL: 146 mg/dL
  RALB: 3.4 g/dL
  TBIL: 0.1 mg/dL
  TC: 80.6 mg/dL
  TG: 62.8 mg/dL
  TP: 5.5 g/dL
  gamma-GTP: 1.2 IU/L
[6]
  TERMINAL_BW: 262.3 g
  APTT: 19.8 s
  Bas: 0%
  Eos: 1%
  Fbg: 229.4 mg/dL
  Hb: 13.6 g/dL
  Ht: 40.4%
  Lym: 80.4%
  MCH: 21.3 pg
  MCHC: 33.8%
  MCV: 63 fL
  Mono: 2.2%
  Neu: 16%
  PT: 12.2 s
  Plat: 141.9 x10_4/uL
  RBC: 641.4 x10_4/ul
  Ret: 5.7%
  WBC: 131.1 x10_2/uL
  KIDNEY_L: 1.1 g
  KIDNEY_R: 1.1 g
  KIDNEY_TOTAL: 2.3 g
  LIVER: 12.7 g
  A/G: 1.5
  ALP: 865.8 IU/L
  ALT: 36.2 IU/L
  AST: 62.2 IU/L
  BUN: 15.4 mg/dL
  CRE: 0.4 mg/dL
  Ca: 10.7 mg/dL
  Cl: 103.8 meq/L
  DBIL: 0.08 mg/dL
  GLC: 206.2 mg/dL
  IP: 7.1 mg/dL
  K: 3.8 meq/L
  LDH: 162.6 IU/L
  Na: 142 meq/L
  PL: 135.2 mg/dL
  RALB: 3.4 g/dL
  TBIL: 0.1 mg/dL
  TC: 75.4 mg/dL
  TG: 75 mg/dL
  TP: 5.7 g/dL
  gamma-GTP: 1 IU/L
[7]
  TERMINAL_BW: 308.3 g
  APTT: 20.1 s
  Bas: 0%
  Eos: 1%
  Fbg: 225.6 mg/dL
  Hb: 14.2 g/dL
  Ht: 42.2%
  Lym: 78%
  MCH: 20.4 pg
  MCHC: 33.7%
  MCV: 60.6 fL
  Mono: 3.2%
  Neu: 17.2%
  PT: 12.3 s
  Plat: 129.7 x10_4/uL
  RBC: 696.2 x10_4/ul
  Ret: 2.8%
  WBC: 131.1 x10_2/uL
  KIDNEY_L: 1.2 g
  KIDNEY_R: 1.2 g
  KIDNEY_TOTAL: 2.4 g
  LIVER: 13.7 g
  A/G: 1.5
  ALP: 701.8 IU/L
  ALT: 35.2 IU/L
  AST: 57.4 IU/L
  BUN: 15.2 mg/dL
  CRE: 0.5 mg/dL
  Ca: 10.6 mg/dL
  Cl: 103.2 meq/L
  DBIL: 0.1 mg/dL
  GLC: 215.2 mg/dL
  IP: 7.4 mg/dL
  K: 4.1 meq/L
  LDH: 171.8 IU/L
  Na: 140.6 meq/L
  PL: 138.8 mg/dL
  RALB: 3.5 g/dL
  TBIL: 0.2 mg/dL
  TC: 72.6 mg/dL
  TG: 92.4 mg/dL
  TP: 5.8 g/dL
  gamma-GTP: 1 IU/L
[8]
  TERMINAL_BW: 393.4 g
  APTT: 21.2 s
  Bas: 0%
  Eos: 1%
  Fbg: 219.6 mg/dL
  Hb: 15 g/dL
  Ht: 44.1%
  Lym: 81.8%
  MCH: 19.5 pg
  MCHC: 34%
  MCV: 57.2 fL
  Mono: 2.2%
  Neu: 14.8%
  PT: 12.5 s
  Plat: 121.1 x10_4/uL
  RBC: 772 x10_4/ul
  Ret: 2.7%
  WBC: 138.9 x10_2/uL
  KIDNEY_L: 1.4 g
  KIDNEY_R: 1.4 g
  KIDNEY_TOTAL: 2.9 g
  LIVER: 16.7 g
  A/G: 1.3
  ALP: 684.6 IU/L
  ALT: 31 IU/L
  AST: 55.8 IU/L
  BUN: 16 mg/dL
  CRE: 0.5 mg/dL
  Ca: 10.3 mg/dL
  Cl: 104.2 meq/L
  DBIL: 0.086 mg/dL
  GLC: 235.8 mg/dL
  IP: 6.4 mg/dL
  K: 3.5 meq/L
  LDH: 162.2 IU/L
  Na: 141.4 meq/L
  PL: 120.4 mg/dL
  RALB: 3.4 g/dL
  TBIL: 0.1 mg/dL
  TC: 66.2 mg/dL
  TG: 82 mg/dL
  TP: 6 g/dL
  gamma-GTP: 0.8 IU/L
